Patent US7022882B2, “NMDA receptor channel blocker with neuroprotective activity” (priority 2000, dated 2006)
“And” between values parts separate entries of the source, which are not always exact repeats. Equal values may be shown once. “Also recorded” adds a separate entry of the source. Read-outs that look alike come from different tables or passages of the source.

Columns and labels:
[1] = test system: cultured hippocampal neurons; experiment: Kainate induced neuronal cell death in hippocampal cultures; type: cell-based, rat; details: 20 μM CNQX, 10 μM MK-801, 10 μM memantine or 10 μM NBTA
Method: FIG. 7. NBTA protects cultured hippocampal neurons from NMDA receptor-mediated excitotoxic cell death. Trypan blue exclusion assays of (A) control neurons and neurons exposed to 200 μM NMDA in the absence (B) or presence of 10 μM memantine (C); and in the presence of 10 μM NBTA (D). (E) Normalized cell death in the absence and presence of the lead. (F) Neuronal death induced by kainate in the absence or presence of 20 μM CNQX, 10 μM MK-801, 10 μM memantine or 10 μM NBTA. Data are mean±s.e., n=2000.
To evaluate the specificity of the neuroprotective effect of NBTA<its activity against kainate induced neuronal cell death was assessed.
(§1) Mixed hippocampal neuron/glia primary cultures were employed to assess the neuroprotective activities of the identified lead against NMDA receptor-mediated excitotoxic cell death. Primary culture of rat hippocampal neurons were prepared as previously described (Ferrer-Montiel A. V., et al., Nat. Biotechnol., 16(3):286–91, 1998; Schinder A. F., et al.; J. Neurosci., 16(19):6125–33, 1996). In brief, hippocampi from E17–E19 rat embryos were first taken out and incubated at 4° C. in a saline (BSS) containing (mM): 137 NaCl, 3.5 KCl, 0.4 KH2PO4, 0.33 Na2HPO4.7H2O, 5 TES, and 10 glucose, pH 7.4. Hippocampi were then incubated in 0.25% trypsin (1×) solution from Hyclone at 37° C. for 15 min. Tissues were then washed and resuspended in minimal essential medium (Earle's salt) supplemented with 10% heat-inactivated horse serum (Hyclone), 10% fetal bovine serum (Hyclone), 1 mM […], 22 mM glucose, 20U/ml penicillin and 20 ug/ml streptomycin. Digested hippocampi were eventually dissociated by pipetting through a Pasteur pipette. Cells were plated at a density of 5×10^4 cells/cm^2.

[2] = test system: cultured rat hippocampal neurons; experiment: Excitotoxic assay in hippocampal cultures, NMDA challenge, trypan blue exclusion; type: cell-based; details: 200 μM NMDA and 20 μM glycine for 20 min; for protection from NMDA receptor-mediated cell death: 10 μM, cell death by NMDA alone = 100%
Method: as §1
Neurons cultured 14–17 days were used for the excitotoxic assays. Cultured medium was first removed and rinsed with BSS supplemented with 1 mM CaCl2, and 20 μM glycine. Neurons were challenged with 200 μM NMDA in the absence and presence of […] for 20 min at room temperature. The insults were terminated by removing the BSS containing NMDA. To reduce the excitotoxic effect due to the residual NMDA, the culture medium was supplemented with 20 μM MK-801. Cell cultures were returned to the incubator (37° C., 5% CO2). Cell death was assessed 20–24 hours after the challenge with trypan blue (0.04%) exclusion assays. Fraction of dead cells in cultures treated with control buffer (8±3%, n=2000) was subtracted as background.
NMDA insult alone caused significant cell death of 45±6% (n=2000). Neuroprotective activities as described in the Detailed Description of the Invention were expressed as percentage of net cell death in the absence and presence of 10 μM of the known NMDA receptor blockers and the identified compound. Cell death elicited by NMDA alone was considered as 100%. The assays were repeated in 4 separated occasions with different culture preparations.

[3] = biological target: T1, NMDA receptors (NR1/NR2A) (Homo sapiens, UniProt Q05586+Q12879); details: literature values; cited from earlier work
NMDA receptor, S616G = NMDA receptor, S616G (Homo sapiens, UniProt Q05586+Q12879, S616G); experiment: Block of NMDA receptor with S616G mutation in oocytes; type: cell-based; details: versus wild type
Method: (§2) In contrast, mutations at N614G, N615G and S616G in the M2 segment had no effect on NBTA binding.
(§3) Oocytes of stage V and VI were surgically removed from the ovaries of […] anesthetized with 0.4% ethyl 3-amino-benzoate methanesulfonic acid-Clusters of oocytes were incubated with 2 mg/ml collagenase (Life Technologies, Gaithersburg, Md.) for 1 hour 20 min in Ca^2+-free solution comprised of (mM) 82.5 NaCl, 2.5 KCl, 1 MgCl2, 5 HEPES, pH 7.4 with vigorous agitation to remove the follicular cell layer. Oocytes were then washed extensively with the Ca^2+-free solution to remove the collagenase. Oocytes were eventually incubated in Barth's solution consisted of (in mM): 96 NaCl, 2 mM KCl, 1.8 CaCl2, 1 MgCl2, 5 HEPES supplemented with 100U/ml penicillin and 100 ug/ml streptomycin, pH 7.4 at 17° C. Oocytes were injected with 5–15 ng of cRNA encoding NR1 or its mutant premixed with three-fold amount of cRNA encoding NR2A.
(§4) On days two to six following injection of cRNAs, whole oocyte currents were recorded with standard two-electrode voltage-clamp. […] The blocking activities of the library were assessed at 10 μM (assuming the molecular weight is ˜500). […] Blocking activity of the mixture is expressed as fraction of response blocked by the mixture. […]

[4] = biological target: T1, NMDA receptors (NR1/NR2A); experiment: Two-electrode voltage-clamp block of recombinant NMDA receptors expressed in Xenopus oocytes; type: cell-based
Method: Oocytes of stage V and VI were surgically removed from the ovaries of Xenopus oocytes anesthetized with 0.4% ethyl 3-amino-benzoate methanesulfonic acid-Clusters of oocytes were incubated with 2 mg/ml collagenase (Life Technologies, Gaithersburg, Md.) for 1 hour 20 min in Ca^2+-free solution comprised of (mM) 82.5 NaCl, 2.5 KCl, 1 MgCl2, 5 HEPES, pH 7.4 with vigorous agitation to remove the follicular cell layer. Oocytes were then washed extensively with the Ca^2+-free solution to remove the collagenase. Oocytes were eventually incubated in Barth's solution consisted of (in mM): 96 NaCl, 2 mM KCl, 1.8 CaCl2, 1 MgCl2, 5 HEPES supplemented with 100U/ml penicillin and 100 ug/ml streptomycin, pH 7.4 at 17° C. Oocytes were injected with 5–15 ng of cRNA encoding NR1 or its mutant premixed with three-fold amount of cRNA encoding NR2A.
On days two to six following injection of cRNAs, whole oocyte currents were recorded with standard two-electrode voltage-clamp. All electrophysiological studies, unless otherwise stated, were performed in Ba^2+/flufenamic-Ringer's solution (in mM: 10 HEPES pH7.5, 115 NaCl, 2.8 KCl, 2.0 BaCl2, 0.1 flufenamic, 0.1 niflumic acid) at ambient temperature as previously described (Ostresh J. M., et al., J. Org. Chem., 63:8622–8623, 1998; Nefzi A., et al., Tetrahedron, 55:335–344, 1999). Both current and voltage electrodes were filled with 3M KCl and have a tested resistance of 0.5–1 MOhm. The blocking activities of the library were assessed at 10 μM (assuming the molecular weight is ˜500). […] Inward currents were elicited from a holding potential of −80 mV except where indicated. […] Blocking activity of the mixture is expressed as fraction of response blocked by the mixture. Dose-response curves were fitted to the Hill equation:
[formula] where y is the ratio of current in the presence and presence of blocker, [x] is the blocker concentration, and IC50 and nH represent the concentration blocks 50% of response and Hill coefficient, respectively. Current-voltage relationships were measured first in the absence and then in the presence of a given concentration of lead at a specified membrane holding potential, and the ratio of these currents was plotted as a function of the holding potential. Analysis of the voltage dependent block current was performed according to the model proposed by Woodhull (Woodhull A. M., J. Gen. Physiol., 61:687–708, 1973). Data were fitted with the equation according to Zarei and Dani (Zarei M. M. and Dani J. A., J. Gen. Physiol., 1103(2):231–48, 1994):
[formula] where Ib and Ic are currents recorded during the blockade and control, respectively; [B] is the concentration of the blocker; Kd is the dissociation constant of the blocker at 0 mV; δ is the fraction of the membrane field sensed by the blocker as it binds to its site; V is the command voltage; R is the gas constant; T is the absolute temperature; F is the Faraday's number; z is the valence of the blocker.

[5] = biological target: NMDA receptor, NR1 mutant (N616Q) (Homo sapiens, UniProt Q05586+Q12879, N616Q); experiment: Block of NMDA receptor with NR1 mutant N616Q in oocytes; type: cell-based; details: versus wild type
[6] = biological target: NMDA receptor, N614G (NR2 mutant) (Homo sapiens, UniProt Q05586+Q12879, N614G); experiment: Block of NMDA receptor with N614G mutation in oocytes; type: cell-based; details: versus wild type
Method: as §2, §3, §4

[7] = biological target: NMDA receptor, N616Q (NR1 mutant) with N614G (NR2 mutant) (Homo sapiens, UniProt Q05586+Q12879, N614G/N616Q); experiment: Block of NMDA receptor with coexpressed N616Q (NR1 mutant) and N614G (NR2 mutant) in oocytes; type: cell-based; details: versus N616Q alone
Method: as §2, §3, §4

NMDA receptor, NR1 N616R = NMDA receptor, NR1 N616R (Homo sapiens, UniProt Q05586+Q12879, N616R); experiment: Block of NMDA receptor with NR1 N-site mutant N616R in oocytes; type: cell-based; details: versus wild type
[8] = biological target: NMDA receptor, NR2A tryptophan 606 to leucine (Homo sapiens, UniProt Q05586+Q12879, W606L); experiment: Block of NMDA receptor with NR2A tryptophan 606 to leucine substitution in oocytes; type: cell-based; details: versus wild type
Method: as §2, §3, §4

NMDA receptor, N615G = NMDA receptor, N615G (Homo sapiens, UniProt Q05586+Q12879, N615G); experiment: Block of NMDA receptor with N615G mutation in oocytes; type: cell-based; details: versus wild type
Method: as §2, §3, §4

[9] = biological target: T2, non-NMDA glutamate receptor GluR1 (Homo sapiens, UniProt P42261); experiment: Two-electrode voltage-clamp block of GluR1 expressed in Xenopus oocytes; type: cell-based
T2 construct: expressed in transfected cells
Excerpt: Recombinant NMDA receptor subunits, NR1 (Planells-Cases R, et al., Proc. Natl. Acad. Sci. USA, 90(11):5057–61, 1993) and NR2A (Le Bourdelles B, et al., J. Neurochem., 62(6):2091–8, 1994) was used for screening the dipeptidomimetic combinatorial library. cDNAs of NR1 and NR2A were linearized with NOT1. cRNAs encoding NR1 and NR2A were synthesized from the linearized cDNAs templates according to manufacturer specifications (Ambion). NR1 mutant (N616Q) was used to examine the site of action of the identified lead. The NR1A mutants were linearized with NOT1 and use of T7 for sense. cDNA of human glutamate receptor/GluR1 (Sun W., et al., Proc. Natl. Acad. Sci. USA, 89:1443–1447, 1992) was linearized with Hind III and the use of T3 promoter for the synthesis of its […]. cDNAs were quantified by spectroscopy and the quality were assessed by gel electrophoresis. […]
as §4

T2 sequence (P42261 19-906): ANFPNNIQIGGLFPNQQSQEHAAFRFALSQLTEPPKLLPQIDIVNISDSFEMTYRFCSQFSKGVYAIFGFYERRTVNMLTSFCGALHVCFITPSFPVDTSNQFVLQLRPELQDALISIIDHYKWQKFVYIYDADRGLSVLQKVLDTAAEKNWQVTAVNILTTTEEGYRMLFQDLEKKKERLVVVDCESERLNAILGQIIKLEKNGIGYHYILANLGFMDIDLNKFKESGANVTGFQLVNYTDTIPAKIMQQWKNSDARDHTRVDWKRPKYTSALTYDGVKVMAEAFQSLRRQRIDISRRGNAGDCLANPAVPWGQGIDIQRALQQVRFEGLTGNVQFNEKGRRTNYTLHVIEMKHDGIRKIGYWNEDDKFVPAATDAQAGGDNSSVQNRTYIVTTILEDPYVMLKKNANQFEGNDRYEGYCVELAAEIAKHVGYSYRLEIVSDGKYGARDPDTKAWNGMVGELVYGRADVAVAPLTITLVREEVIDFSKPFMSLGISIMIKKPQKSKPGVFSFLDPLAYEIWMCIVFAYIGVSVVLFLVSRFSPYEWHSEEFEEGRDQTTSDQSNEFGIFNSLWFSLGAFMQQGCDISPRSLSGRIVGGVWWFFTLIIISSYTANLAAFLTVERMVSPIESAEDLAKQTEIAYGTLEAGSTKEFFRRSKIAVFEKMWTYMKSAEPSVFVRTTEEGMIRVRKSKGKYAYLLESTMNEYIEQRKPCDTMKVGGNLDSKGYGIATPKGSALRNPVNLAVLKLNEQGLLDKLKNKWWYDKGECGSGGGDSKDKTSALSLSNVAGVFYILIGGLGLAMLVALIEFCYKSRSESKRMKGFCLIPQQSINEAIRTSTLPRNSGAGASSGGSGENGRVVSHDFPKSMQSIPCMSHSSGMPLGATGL
T1 sequence (Q12879 23-1464, other chains not shown): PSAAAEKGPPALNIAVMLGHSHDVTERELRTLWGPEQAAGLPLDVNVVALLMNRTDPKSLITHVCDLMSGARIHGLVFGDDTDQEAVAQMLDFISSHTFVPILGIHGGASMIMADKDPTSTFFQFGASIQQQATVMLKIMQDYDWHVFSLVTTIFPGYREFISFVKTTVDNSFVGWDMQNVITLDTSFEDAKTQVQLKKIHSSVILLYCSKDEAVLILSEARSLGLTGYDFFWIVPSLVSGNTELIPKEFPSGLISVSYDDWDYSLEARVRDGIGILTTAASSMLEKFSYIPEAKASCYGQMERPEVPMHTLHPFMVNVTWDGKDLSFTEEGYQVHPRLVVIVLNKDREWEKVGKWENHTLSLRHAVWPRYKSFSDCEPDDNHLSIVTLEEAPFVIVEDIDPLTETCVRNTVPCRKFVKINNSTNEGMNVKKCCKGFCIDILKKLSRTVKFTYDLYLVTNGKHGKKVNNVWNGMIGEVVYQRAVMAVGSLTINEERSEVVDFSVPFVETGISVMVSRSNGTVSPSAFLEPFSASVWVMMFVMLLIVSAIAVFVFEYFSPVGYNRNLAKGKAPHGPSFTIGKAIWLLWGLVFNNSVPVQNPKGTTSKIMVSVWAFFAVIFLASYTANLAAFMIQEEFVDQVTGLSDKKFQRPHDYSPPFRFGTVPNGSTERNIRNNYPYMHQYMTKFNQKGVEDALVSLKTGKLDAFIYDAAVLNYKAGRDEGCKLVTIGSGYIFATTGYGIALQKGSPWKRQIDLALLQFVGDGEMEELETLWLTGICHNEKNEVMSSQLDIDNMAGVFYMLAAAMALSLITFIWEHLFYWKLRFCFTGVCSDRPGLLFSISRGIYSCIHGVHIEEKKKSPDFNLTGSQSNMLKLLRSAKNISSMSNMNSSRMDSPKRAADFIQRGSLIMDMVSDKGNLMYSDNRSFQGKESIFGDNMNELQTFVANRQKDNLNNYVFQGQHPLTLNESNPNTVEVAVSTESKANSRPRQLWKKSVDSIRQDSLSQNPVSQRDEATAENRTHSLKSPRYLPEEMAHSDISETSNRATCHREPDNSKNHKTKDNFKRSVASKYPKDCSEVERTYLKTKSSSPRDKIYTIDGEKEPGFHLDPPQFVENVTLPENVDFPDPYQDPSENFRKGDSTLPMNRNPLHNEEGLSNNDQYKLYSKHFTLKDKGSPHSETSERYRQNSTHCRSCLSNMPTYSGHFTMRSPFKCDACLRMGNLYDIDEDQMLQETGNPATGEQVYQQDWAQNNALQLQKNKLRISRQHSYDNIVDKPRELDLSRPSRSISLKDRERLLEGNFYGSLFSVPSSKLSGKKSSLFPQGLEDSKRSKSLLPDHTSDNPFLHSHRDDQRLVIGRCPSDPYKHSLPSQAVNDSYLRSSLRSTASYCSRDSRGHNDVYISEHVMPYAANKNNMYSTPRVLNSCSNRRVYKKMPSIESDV
NMDA receptor, N615G, sequence (Q12879 23-1464 N615G, other chains not shown): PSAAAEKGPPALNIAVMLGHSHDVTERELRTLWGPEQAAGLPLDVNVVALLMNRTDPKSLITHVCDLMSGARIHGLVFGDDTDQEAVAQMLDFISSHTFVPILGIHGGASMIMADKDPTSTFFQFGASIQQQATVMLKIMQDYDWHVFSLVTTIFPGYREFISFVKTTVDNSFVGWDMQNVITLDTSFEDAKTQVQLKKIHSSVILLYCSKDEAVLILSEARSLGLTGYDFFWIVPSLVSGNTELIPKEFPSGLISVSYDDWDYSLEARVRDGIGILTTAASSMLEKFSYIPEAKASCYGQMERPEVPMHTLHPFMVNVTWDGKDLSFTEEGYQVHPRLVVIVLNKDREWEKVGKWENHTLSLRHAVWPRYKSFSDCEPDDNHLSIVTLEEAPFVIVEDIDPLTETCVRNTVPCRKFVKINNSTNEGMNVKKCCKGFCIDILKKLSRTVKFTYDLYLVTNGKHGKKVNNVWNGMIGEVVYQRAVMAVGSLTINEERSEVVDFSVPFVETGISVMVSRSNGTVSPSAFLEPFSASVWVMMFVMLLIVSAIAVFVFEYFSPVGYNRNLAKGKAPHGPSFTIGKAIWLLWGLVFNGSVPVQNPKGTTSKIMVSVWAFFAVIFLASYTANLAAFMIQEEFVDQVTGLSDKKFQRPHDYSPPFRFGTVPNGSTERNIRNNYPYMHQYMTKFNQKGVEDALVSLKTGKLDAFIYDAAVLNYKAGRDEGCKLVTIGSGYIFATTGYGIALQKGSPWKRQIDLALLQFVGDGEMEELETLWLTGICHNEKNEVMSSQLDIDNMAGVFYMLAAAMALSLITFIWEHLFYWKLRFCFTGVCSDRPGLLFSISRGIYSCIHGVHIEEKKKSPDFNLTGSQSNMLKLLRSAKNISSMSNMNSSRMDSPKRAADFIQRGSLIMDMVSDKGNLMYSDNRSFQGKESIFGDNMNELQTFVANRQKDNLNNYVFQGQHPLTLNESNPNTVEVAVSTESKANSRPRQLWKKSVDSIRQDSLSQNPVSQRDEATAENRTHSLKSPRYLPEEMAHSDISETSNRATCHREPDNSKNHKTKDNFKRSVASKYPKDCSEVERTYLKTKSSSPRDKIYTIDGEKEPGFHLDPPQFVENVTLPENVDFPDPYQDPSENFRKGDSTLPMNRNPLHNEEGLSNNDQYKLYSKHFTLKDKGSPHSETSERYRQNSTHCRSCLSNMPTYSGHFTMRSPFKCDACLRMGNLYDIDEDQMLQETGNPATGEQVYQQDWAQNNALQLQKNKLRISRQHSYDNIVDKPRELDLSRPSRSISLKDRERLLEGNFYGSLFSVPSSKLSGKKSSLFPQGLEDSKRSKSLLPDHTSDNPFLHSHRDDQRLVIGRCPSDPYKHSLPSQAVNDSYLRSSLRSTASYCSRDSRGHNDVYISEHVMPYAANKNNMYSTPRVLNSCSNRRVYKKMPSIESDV

Compound: N#Cc1cc2c(cc1[N+](=O)[O-])=NC(=O)C(=O)N=2 [CNQX, 6-cyano-7 nitroquinoxaline-2,3-dione]
- effect on neuronal cell death induced by kainate [1]: protects neurons

Compound: C[C@]12N[C@H](Cc3ccccc31)c1ccccc12 [MK-801]
- protection from NMDA receptor-mediated cell death [2]: 89±1%
- effect on neuronal cell death induced by kainate [1]: protect neurons as well, though not as effectively as CNQX

Compound: [Mg+2] [Mg^2+]
- δ, fraction of the membrane field sensed by the blocker [3]: ~0.77

Compound: CCC(C)C(N)CN(Cc1ccccc1)C(CNCc1ccccc1)Cc1ccc(O)cc1 (stereo not shown) [NBTA]
- effect of S616G mutation on binding (NMDA receptor, S616G): no effect
- use dependence of NMDA receptor block ([4]; 0.1 μM, repetitive pulses of glutamate (200 μM) and glycine (20 μM), -80 mV): progressive block; also recorded: progressive blockade
- block of NMDA current ([4]; 1 μM compound, -80 mV): 70±3% and ~95%
- IC50 ([4]; Hill equation fit, n=6, read-out: IC50, wild-type NMDA receptors (NR1/NR2A)): 80 nM
- δ, fraction of the membrane field sensed by the blocker ([4]; Woodhull model of voltage-dependent block): 0.56
- fraction of transmembrane electric field traversed to reach binding site ([4]; from δ): ~56%
- voltage dependence of NMDA current reduction ([4]; voltage-ramp protocol, 200 μM L-glutamic acid plus 20 μM glycine): voltage-dependent
- change of blocking activity by replacement of N616 for glutamine [5]: only slightly reduces
- effect of N614G mutation on binding [6]: no effect
- binding with coexpressed N616Q and N614G compared with N616Q alone [7]: similar
- reduction of blocking activity by N616R substitution (NMDA receptor, NR1 N616R): 275 fold
- reduction of blocking activity by tryptophan to leucine substitution in NR2A [8]: 4.7 fold
- effect of N615G mutation on binding (NMDA receptor, N615G): no effect
- protection from NMDA receptor-mediated cell death [2]: 83±2%
- effect on neuronal cell death induced by kainate [1]: no effect
- block of GluR1 ([9]; 1 μM): not
- effect on GluR1 / AMPA receptors ([9]; even at 1 mM / mM concentration range): no effect at all

Compound: CN[C@H](CC(=O)O)C(=O)O [NMDA, N-methyl-D aspartate]
- cell death induced by NMDA ([2]; no blocker): 50±3% and 45±6%

Compound: CC12CC3CC(C)(C1)CC(N)(C3)C2 [memantine, 1-amino-3,5-dimethyladamantane]
- δ, fraction of the membrane field sensed by the blocker [3]: ~0.77
- protection from NMDA receptor-mediated cell death [2]: 93±1%
- effect on neuronal cell death induced by kainate [1]: protect neurons as well, though not as effectively as CNQX
